The target of series [1] is T1, PPARG (peroxisome proliferator-activated receptor gamma) (Homo sapiens, UniProt P37231).
T1 construct: expressed in transfected cells; host or cells: HepG2
T1 sequence (P37231 1-505): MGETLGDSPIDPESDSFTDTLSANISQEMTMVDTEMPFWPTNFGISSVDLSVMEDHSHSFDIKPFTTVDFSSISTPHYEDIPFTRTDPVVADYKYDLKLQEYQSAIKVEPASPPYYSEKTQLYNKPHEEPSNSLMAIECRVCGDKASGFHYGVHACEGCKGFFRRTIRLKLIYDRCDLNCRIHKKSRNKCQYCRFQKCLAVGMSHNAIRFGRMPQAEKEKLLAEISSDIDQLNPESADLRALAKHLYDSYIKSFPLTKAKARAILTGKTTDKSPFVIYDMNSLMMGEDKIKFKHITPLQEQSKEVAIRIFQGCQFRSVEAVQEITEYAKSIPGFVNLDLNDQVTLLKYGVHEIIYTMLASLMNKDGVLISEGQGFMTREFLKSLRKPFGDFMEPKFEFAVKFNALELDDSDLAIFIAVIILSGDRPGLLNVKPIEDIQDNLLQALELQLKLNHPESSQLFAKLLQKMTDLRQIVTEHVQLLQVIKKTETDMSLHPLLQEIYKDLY
In words: ATG_PPARg_TRANS: Factorial reporter gene assay (HepG2). It is filed as cell-based. To be noted: HepG2 reporter. In a few lines: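 Mammalian one-hybrid trans reporters (25 MRTUs) measured ERRg, FXR and PPARg; PXRE used cis reporters from a 48-site MRTU library. Both were run in HepG2. Dosing: seven concentrations, MTC as the highest, three-fold dilution series.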
For orientation: Reporter assays use an easily measured gene product as a stand-in for the process of interest.

Series [2] deals with Mouse Liver. To be noted: chronic study, mouse liver; ref ToxRefDB; cited from earlier work.
The target in a further series is T2, PXR (NR1I2) (Homo sapiens, UniProt O75469).
T2 sequence (O75469 1-434): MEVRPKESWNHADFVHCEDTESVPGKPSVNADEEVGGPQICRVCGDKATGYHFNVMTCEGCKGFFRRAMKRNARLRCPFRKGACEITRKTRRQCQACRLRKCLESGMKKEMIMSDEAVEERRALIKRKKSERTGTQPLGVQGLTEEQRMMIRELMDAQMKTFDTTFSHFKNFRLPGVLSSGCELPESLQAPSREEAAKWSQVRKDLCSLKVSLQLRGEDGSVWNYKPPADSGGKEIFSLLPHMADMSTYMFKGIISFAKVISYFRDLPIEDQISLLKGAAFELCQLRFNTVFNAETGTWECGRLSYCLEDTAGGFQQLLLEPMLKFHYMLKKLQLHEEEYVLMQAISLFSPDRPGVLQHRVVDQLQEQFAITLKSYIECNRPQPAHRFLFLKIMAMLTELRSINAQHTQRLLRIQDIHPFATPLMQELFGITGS
Briefly: NVS_NR_hPXR: Human PXR Fluormone PXR (SXR) green (cell-free HTS). The series is classed as binding. In a few lines: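 Cell-free biochemical binding assays; chemicals first screened at a single concentration of 25 […] M in duplicate wells. Signals normalised to same-plate solvent controls as percent of neutral control, and AC50 values came from Hill-equation fits of concentration-response curves.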

The subject of series [3] is Rat Liver. To be noted: chronic study, rat liver; ref ToxRefDB; cited from earlier work.
In series [4] the test system is Rat Liver. The note with it: chronic study, rat liver; ref ToxRefDB; cited from earlier work. This is another data set of the same source.
A further series addresses T3, PPARg (PPARG) (Homo sapiens, UniProt P37231).
T3 sequence (P37231 1-505): T1 sequence (P37231 1-505)
In words: NCGC_PPARg_Agonist: GAL4 BLAM Reporter gene assay: PPARg. The series is classed as cell-based. The arrangement: expressed in transfected cells; host or cells: HEK293. The note with it: agonist mode. How it is done:
These assays measure binding constants and enzyme inhibition values for nuclear receptors. The targets include [drawing 67] , [drawing 68] , [drawing 69] , [drawing 70] , [drawing 71] , [drawing 72] , [drawing 73] , [drawing 74] , [drawing 75] and [drawing 76] . Each of the nuclear receptor targets was measured in agonist mode. Assays were run at the NIH Chemical Genomics Center (Rockville, MD).
Cell-based HTS Assays: These assays measuring binding constants and enzyme inhibition values for nuclear receptors. The targets include AR, ER, FXR, LXR, PPARα, PPARδ, PPARγ, RXRα, RXRβ and PXR. Each of the nuclear receptor targets was measured in both agonist and antagonist mode, but the antagonist data is still undergoing analysis due to possible interference between cytotoxicity and assay activity, so antagonist mode data were not used in the present analysis. Assays were run at the NIH Chemical Genomics Center (Rockville, MD) as part of the Tox21 collaboration. […] The R^2 was required to be ≥0.5. Values where only the highest concentration exceeded 50% activity were excluded to eliminate weak or false positives. Detailed description of the methods, data and analysis methods for this dataset will be presented in a separate publication.

Series [5] has as its system Mouse Liver. To be noted: chronic study, mouse liver; ref ToxRefDB; cited from earlier work. The source holds these as a separate data set.
For a further series, the system named is CYP3A4. Briefly: CLZD_CYP3A4: Change in expression of CYP3A4 (primary human hepatocytes). The note with it: 24 hr. It is filed as cell-based. In a few lines: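 Chemicals are tested in human hepatocyte primary cultures over 0.004-40 µM (5 concentrations) for 6, 24 or 48 hr, and concentration- and time-dependent transcript changes are read by quantitative nuclease protection assay.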

The subject of series [6] is Rat Liver. To be noted: chronic study, rat liver; ref ToxRefDB; cited from earlier work. This is another data set of the same source.
The subject of series [7] is Mouse Liver. To be noted: chronic study, mouse liver; ref ToxRefDB; cited from earlier work. This is another data set of the same source.
In the next series the target is T4, PXR Human (NR1I2) (Homo sapiens, UniProt O75469).
T4 sequence (O75469 146-434 limits assumed): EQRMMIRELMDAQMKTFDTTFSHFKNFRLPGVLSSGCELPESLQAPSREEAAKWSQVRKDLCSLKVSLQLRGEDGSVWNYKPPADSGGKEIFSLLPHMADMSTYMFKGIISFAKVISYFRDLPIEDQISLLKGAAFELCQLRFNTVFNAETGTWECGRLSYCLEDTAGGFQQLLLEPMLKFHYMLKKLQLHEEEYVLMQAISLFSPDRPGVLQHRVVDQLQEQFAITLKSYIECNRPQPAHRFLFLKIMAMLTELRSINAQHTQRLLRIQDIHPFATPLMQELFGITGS
Briefly: NCGC_PXR_Agonist_human: GAL4 BLAM Reporter gene assay: PXR Human. It is filed as cell-based. To be noted: agonist mode. In a few lines:
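Tox21 cell-based screens at NCGC using GAL4-fused receptor beta-lactamase reporters. Responses active only at the top concentration (above 50%) were discarded, and fits needed R^2 of at least 0.5.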

`CCC(C)(C)C(=O)OC1=C(c2cc(Cl)cc(Cl)c2)C(=O)OC12CCCCC2` [r285]: the ATG_PPARg_TRANS in [1] was found to be 5.444. For the same molecule, the CHR_Mouse_Liver_1_AnyLesion in the series on Mouse Liver [2] was 6. The molecule further displayed an NVS_NR_hPXR on PXR (NR1I2) of 6.367. Besides, in the series on Rat Liver [3], the CHR_Rat_Liver_3_NeoplasticLesion is recorded as 0. Besides, the CHR_Rat_Liver_2_PreneoplasticLesion in the series with Rat Liver [4] is on record as 6. On PPARg (PPARG), this molecule showed an NCGC_PPARg_Agonist of 5.556. The CHR_Mouse_Liver_2_PreneoplasticLesion in the series with Mouse Liver [5] is 6. Further, the CLZD_CYP3A4_24 in the series on CYP3A4 turned out to be 6.36. Also, the CHR_Rat_Liver_1_AnyLesion in the series with Rat Liver [6] is 6. In the series with Mouse Liver [7], the CHR_Mouse_Liver_3_NeoplasticLesion is given as 6.

In the case of `N#CSCSc1nc2ccccc2s1` [r289], on PXR (NR1I2), the NVS_NR_hPXR stood at 6.169. This molecule returned an NCGC_PXR_Agonist_human on PXR Human (NR1I2) of 4.409. For the same molecule, on PPARg (PPARG), the NCGC_PPARg_Agonist is given as 4.706.
